Laboratory results as given in US10278931B2, “Composition for treatment of inflammatory bowel disease and atopic dermatitis” (INNOPHARMASCREEN INC., priority 2015, dated 2019).

What was measured:
SD rats = experiment: Acute dermal toxicity test; assay type: in vivo; settings: for Number of death on day 1 / Number of death on day 2 / Number of death on day 3 / Number of death on day 4 / Number of death on day 5 / Number of death on day 6 / Number of death on day 7 / Number of death on day 8-14 / Number of death on day 0: dose group 200 (head μg/kg bw); for Number of death on day 0: single transdermal
Method: (1) Environmental Conditions: In the present experiment, experimental animals were bred in a clean animal breeding room (small animal room #2-302) at Hoseo University Safety Evaluation Center, set under environmental conditions: temperature of 22±3° C.; relative humidity of 50±20%; ventilation frequency of 10 to 15 times/hour; illumination period of 12 hours; and illuminance of 150 Lux to 300 Lux.
(2) Cages and rugs: Two or three animals per sex were accommodated in each of polycarbonate cages (270×500×200 mm, KYERYONG SCIENCE) with a stainless steel mesh lid during an acclimation period, and after group division, 1 animal per sex was accommodated therein. As the rugs, sterile betachips (NEPCO) irradiated with gamma rays were used.
(3) Feed and drinking water: The animals were fed freely a mouse feed for laboratory, animals (5053-Picolab Rodent 20) manufactured by PMI Nutrition International, and filtered water treated with ultraviolet sterilization (R/O water) was freely supplied as drinking water.
(4) Examination of contaminant in feed and drinking water: Contaminants in the feed were examined by receiving a test result from the feed manufacturer, and the quality of drinking water was checked for contamination by regular inspection according to the corresponding SOP of the present test institute and it was confirmed that there were no contaminants.
(A) About 24 hours before administration, hairs on the dorsal part was removed such that the hair-removed site accounted for about 10% or more of the entire surface area thereof, and attention was paid not to injure the skin.
(B) On the day of administration, a dosage for each individual was calculated, and then a test material was sufficiently wetted with a solvent and then applied on the site corresponding to about 10% (about 44 cm) of the entire surface area.
(C) The test material was kept in contact with the skin using a porous gauze, a non-irritating tape, and a bandage during the 24-hour exposure period.
(D) When the exposure period was terminated, the remaining test material was removed using tepid water.
(A) General symptom observation: All animals were observed intensively from 30 minutes to 4 hours after administration, and general symptoms were observed once a day for 14 days. At the time of observation, death and clinical symptoms were recorded on an individual basis.
(B) Body weight measurement: All animals were measured at the time of receipt, at the time of group division, immediately before administration (day of administration), and on day 1, day 4, day 7, day 10, and day 14 after initiation of administration.
(C) Autopsy: During the test, dead animals were immediately autopsied and organs were inspected with the naked eye, and at the end of the test, all living animals were euthanized by CO2 gas inhalation and venesectioned, and then the organs visually examined.
(E) Statistical analysis: Body weight data were expressed as mean and standard deviation, and no statistical analysis of body weight was performed.

caspase-1 = target: T1, caspase-1 (Mus musculus, UniProt P29452); experiment: Caspase-1 assay in dorsal skin of DNCB-applied mice; assay type: in vivo; settings: DNCB-applied balb/c mice, concentration-dependent
T1 construct: using the dorsal skin of DNCB-applied balb/c mice; from tissue; host or cells: dorsal skin of BALB/c mice
T1 sequence (P29452 119-402): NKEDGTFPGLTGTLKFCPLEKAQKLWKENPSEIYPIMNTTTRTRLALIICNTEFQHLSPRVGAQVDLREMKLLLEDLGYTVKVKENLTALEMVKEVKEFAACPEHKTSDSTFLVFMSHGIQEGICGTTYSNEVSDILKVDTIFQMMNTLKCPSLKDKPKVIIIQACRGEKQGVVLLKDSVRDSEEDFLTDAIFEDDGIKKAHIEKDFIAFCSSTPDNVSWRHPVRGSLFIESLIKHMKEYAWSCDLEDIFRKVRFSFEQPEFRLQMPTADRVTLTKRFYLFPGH
Method: (4) Caspase-1 assay: Recombinant caspase-1 and a drug were allowed to react, and then activity measurement was performed using a caspase-1 assay kit (R&D Systems Inc., Minneapolis, Minn., USA).
B. Dermatitis induction: Hairs on the back of each mouse were removed and maintained for 24 hours, and then 150 μl of a 1% 2,4-dinitrochlorobenzene(DNCB) solution (acetone: olive oil=3:1) was applied on the hair-removed site once a week for 3 weeks. After week 3, the DNCB solution was applied on the site twice a week for 3 weeks to induce atopic dermatitis.
C. Treatment: Mice were divided into 6 groups, and 0.5% DMSO was applied on animals as a control and 200 μl of each of 0.01 μM, 0.1 μM, and 1 μM test material was applied on animals as experimental groups for 3 weeks. 50 μl of 0.1% dexamethasone dissolved in a crude alcohol was applied on animals as a positive control at intervals of 2 days.

Cl.N=C(N)NC(=N)Nc1ccc(Cl)cc1 [IPS-07001]
Number of death on day 1 (SD rats; Female): 0 | Number of death on day 2 (SD rats; Female): 0 | Number of death on day 3 (SD rats; Female): 0 | Number of death on day 4 (SD rats; Female): 0 | Number of death on day 5 (SD rats; Female): 0 | Number of death on day 6 (SD rats; Female): 0 | Number of death on day 7 (SD rats; Female): 0 | Number of death on day 8-14 (SD rats; Female): 0 | Number of death on day 0 (SD rats; Female): 0 | Number of death on day 1 (SD rats; Male): 0 | Number of death on day 2 (SD rats; Male): 0 | Number of death on day 3 (SD rats; Male): 0 | Number of death on day 4 (SD rats; Male): 0 | Number of death on day 5 (SD rats; Male): 0 | Number of death on day 6 (SD rats; Male): 0 | Number of death on day 7 (SD rats; Male): 0 | Number of death on day 8-14 (SD rats; Male): 0 | Number of death on day 0 (SD rats; Male): 0 | dead animals during the test period (SD rats; all test material-administered groups, 14 days): No dead animals | Gross findings (internal and external) (SD rats; rat, in vivo): NGF ^a) | body weight from day 2 (SD rats; rat, in vivo): normal body weight increase pattern | body weight on day 1 after administration (SD rats; rat, in vivo): decrease in body weight | clinical symptoms, 4 hour (SD rats; rat, in vivo): NCS | clinical symptoms, Day 1 (SD rats; rat, in vivo): NCS | clinical symptoms, Day 2 (SD rats; rat, in vivo): NCS | clinical symptoms, Day 3 (SD rats; rat, in vivo): NCS | clinical symptoms, Day 4 (SD rats; rat, in vivo): NCS | clinical symptoms, Day 5 (SD rats; rat, in vivo): NCS | clinical symptoms, Day 6 (SD rats; rat, in vivo): NCS | clinical symptoms, Day 7 (SD rats; rat, in vivo): NCS | clinical symptoms, Day 8 (SD rats; rat, in vivo): NCS | clinical symptoms, Day 9 (SD rats; rat, in vivo): NCS | clinical symptoms, Day 10-14 (SD rats; rat, in vivo): NCS | visual pathological examination (autopsy) (SD rats; surviving animals after observation period): no individual showed any abnormalities | caspase-1 activity in dorsal skin (caspase-1): significantly inhibited
